Source: patent publication US8512707B2, “Methods of treating drug-resistant cancers” (Seattle Genetics, Inc., priority 2006, dated 2013)
Read-outs that look alike come from different tables or passages of the source. Square brackets hold non-standard residues; d marks the D form. Peptide text beside a SMILES is read from it. * marks the point of attachment. Dolaproine = CO[C@@H]([C@@H]1CCCN1)[C@@H](C)C(=O)O; Dil = CC[C@H](C)[C@H](NC)[C@@H](CC(=O)O)OC; X1 = C[C@@H](N*)[C@@H](O)c1ccccc1; NMeV = CN[C@H](C(=O)O)C(C)C

What was measured:
[1] = tested on: parental and drug resistant cell line pairs; test: Drug sensitivity across the panel of parental/drug resistant cell line pairs; assay type: cell-based; conditions: for Mean Fold Resistance: average across the cell line panel; for difference in sensitivity of parent and resistant line: statement over all cell line pairs of Table 3
Description: (§1) The following parental and drug resistant cell lines were used to determine their MMAF-drug sensitivity.
(§2) The activity of various drugs against parental and drug resistant subline pairs was tested. The pairs of cell lines tested were A2780 and A2780adr; MES-SA and MES-SA/Dx5; NCI-H69 and NCI-H69/LX-4; and HL60 and HL60/RV. Cell lines were plated and incubated 24 hr. Culture medium containing serial dilutions of the drugs doxorubicin, vincristine, cisplatin, dolastatin 10 or MMAF were then added. The cultures were incubated to 96 hr and labeled with resazurin. Sensitivity to each drug was measured by determining the IC50 of the parent and drug resistant subline pair. The drug resistance (as “fold resistance”) was determined from the IC50 value of the resistant cell line divided by the IC50 value of the parental line. Mean fold resistance is the average across the cell line panel.

[2] = tested on: HCT-15 (colon carcinoma) cells; test: Alteration of drug potency by verapamil, free drugs; assay type: cell-based; conditions: for Fold Difference: IC50 drug alone divided by IC50 verapamil plus drug, HCT-15; for IC50: HCT-15, drug alone, 96 hr, resazurin
Description: Verapamil is a known inhibitor of the P-gp transporter. The following study was conducted to measure the effect of verapamil on P-gp-mediated transport of doxorubicin, vincristine, cisplatin and MMAF.
HCT-15 (colon carcinoma) cells were plated and allowed to adhere to the plates. Neat culture medium or medium containing 40 μM verapamil was added, and the cultures were incubated for 4 hr. Serial dilutions of doxorubicin, vincristine, cisplatin or MMAF were then added. The cultures were incubated to 96 hr and labeled with resazurin. Referring to Table 4, the values shown are the IC50 determined from 4-parameter curve fits. The fold difference was determined by dividing the IC50 of the drug alone treatment by that of the verapamil plus drug treated cultures.

NCI/ADR-RES cells = test: Cell killing by free drugs or MMAF-ADCs with or without verapamil; assay type: cell-based; conditions: for Fold Difference: IC50 drug alone divided by IC50 drug plus verapamil; for IC50: Homo sapiens
Description: NCI/ADR-RES cells were plated and allowed to adhere. Neat culture medium or medium containing 40 μM verapamil was added, and the cultures were incubated for 4 hr. Serial dilutions of the free drugs (doxorubicin, cisplatin or MMAF) or MMAF ADCs (cBR96-vcMMAF or mOKT9-vcMMAF) were then added. The cultures were incubated to 96 hr and labeled with resazurin. Referring to Table 7, the values are the IC50 in […] (doxorubicin, cisplatin, MMAF) or […] (cBR96-vcMMAF, mOKT9-vcMMAF) determined from 4-parameter curve fits. The fold difference is determined by dividing the IC50 from the drug alone treatment by that of the drug treated plus verapamil cultures.

NCI-H69 and NCI-H69/LX-4 = test: Drug sensitivity of parental and drug resistant subline pair (resazurin); assay type: cell-based, human; conditions: IC50 of resistant line divided by IC50 of parental line, 96 hr
Description: as §1, §2

A2780 and A2780adr = test: as above; assay type: cell-based, human; conditions: IC50 of resistant line divided by IC50 of parental line, 96 hr
Description: as §1, §2

HL60 and HL60/RV = test: as above; assay type: cell-based; conditions: IC50 of resistant line divided by IC50 of parental line, 96 hr
Description: as §1, §2

MES-SA and MES-SA/Dx5 = test: as above; assay type: cell-based; conditions: IC50 of resistant line divided by IC50 of parental line, 96 hr
Description: as §1, §2

[3] = tested on: HCT-15 (colon carcinoma) cells; test: Alteration of drug potency by verapamil, free drugs; assay type: cell-based; conditions: read-out: IC50 +10 μM Verapamil, HCT-15, verapamil 4 hr before drug, 96 hr, resazurin
H69 and H69/LX4 = test: Cytotoxic effects on H69 and its P-glycoprotein overexpressing counterpart; assay type: cell-based, human; conditions: free drugs, 6 days, Alamar Blue (FIG. 2A, 2B)
Description: (§3) Log phase cultures of cells were collected and cells plated at seeding densities ranging from 500-10,000 cells/well according to pre-determined conditions. After incubating 24 h to allow surface protein reconstitution, serial dilutions of test molecules were added and cultures incubated a further 4-6 days depending on cell line. Assessment of cellular growth and data reduction to generate IC50 values was done using Alamar Blue (Biosource International, Camarillo, Calif.) dye reduction assay as previously described, according to previously published methods (Doronina et al., supra; Hamblett et al., supra; Law et al., 2004, Clin. Cancer Res. 10:7842-51; Francisco et al., supra). Briefly, a 40% solution (wt/vol) of Alamar Blue was freshly prepared in complete media just before cultures were added. Ninety-two hours after drug exposure, Alamar Blue solution was added to cells to constitute 10% culture volume. Cells were incubated for 4 h, and dye reduction was measured on a Fusion HT fluorescent plate reader (Packard Instruments, Meriden, Conn.).

Karpas 299 cells = test: In vitro growth inhibition (Alamar Blue); assay type: cell-based, human; conditions: 96 h
Description: as §3

hematologic cell lines = conditions: previously displayed (Doronina et al.; Law et al.); cited from earlier work
[4] = Maximum tolerated dose of free drugs in mice; assay type: in vivo; conditions: free drug
Description: The synthesis of MMAE proceeded through a solution-phase route involving the coupling of the amino-protected N-terminal trimer to the C-terminal dimer. Due to the convergent nature of the process, it was possible to produce a large number of auristatins with varied solubilities, potencies and pharmacokinetic properties. […] MMAF-OMe is a prodrug of MMAF (FIG. 1), with the potential of having facilitated intracellular uptake due to the presence of a neutral C-terminus. In addition, intracellular ester hydrolysis of MMAF-OMe should rapidly generate MMAF, a C-terminally charged molecule expected to have impaired membrane translocation capabilities. […] In addition, the maximum tolerated dose in mice of MMAF (>16 mg/kg) was much higher than MMAE (1 mg/kg). Thus, MMAF was of great interest for targeted delivery, since the free drug had attenuated potency, lower toxicity, and much higher aqueous solubility compared to MMAE. Facilitated intracellular transport was expected to greatly enhance its activity.

[5] = tested on: 786-O renal cell carcinoma; test: In vitro growth inhibition (Alamar Blue); assay type: cell-based; conditions: Table 8, free auristatins, 96 h
Description: as §3

[6] = tested on: Caki-1 renal cell carcinoma; test: In vitro growth inhibition (Alamar Blue); assay type: cell-based; conditions: Table 8, free auristatins, 96 h
Description: as §3

[7] = tested on: H3396 breast carcinoma cells; test: In vitro growth inhibition (Alamar Blue); assay type: cell-based; conditions: Table 8, free auristatins, 96 h
Description: as §3

[8] = tested on: panel of CD30 positive and negative hematologic cell lines; test: In vitro growth inhibition, panel of hematologic cell lines; assay type: cell-based; conditions: mean over the lines of Table 9; ADC concentrations represented by the drug component; read-out: IC50 Mean (all lines)
Description: as §3
(§4) Cells were exposed to the ADCs continuously for 96 h, and the cytotoxic effects, as determined by Alamar Blue conversion, were compared to those of free MMAF.

WSU-NHL = test: In vitro growth inhibition (Alamar Blue), CD30 negative line; assay type: cell-based, human; conditions: 96 h, ADC concentrations represented by the drug component
Description: as §3, §4

L540cy = test: In vitro growth inhibition (Alamar Blue); assay type: cell-based; conditions: 96 h, ADC concentrations represented by the drug component
Description: as §3, §4

HH = test: In vitro growth inhibition (Alamar Blue); assay type: cell-based; conditions: 96 h, ADC concentrations represented by the drug component
Description: as §3, §4

RPMI 6666 = test: In vitro growth inhibition (Alamar Blue); assay type: cell-based; conditions: 96 h, ADC concentrations represented by the drug component
Description: as §3, §4

Aqueous solubility = assay type: physicochemical
SR-786 = test: In vitro growth inhibition (Alamar Blue); assay type: cell-based, human; conditions: 96 h, ADC concentrations represented by the drug component
Description: as §3, §4

L428 = test: In vitro growth inhibition (Alamar Blue); assay type: cell-based, human; conditions: 96 h, ADC concentrations represented by the drug component
Description: as §3, §4

KMH-2 = test: In vitro growth inhibition (Alamar Blue); assay type: cell-based, human; conditions: 96 h, ADC concentrations represented by the drug component
Description: as §3, §4

DEL = test: In vitro growth inhibition (Alamar Blue); assay type: cell-based, human; conditions: 96 h, ADC concentrations represented by the drug component
Description: as §3, §4

SUP-M2 = test: In vitro growth inhibition (Alamar Blue); assay type: cell-based, human; conditions: 96 h, ADC concentrations represented by the drug component
Description: as §3, §4

SU-DHL-1 = test: In vitro growth inhibition (Alamar Blue); assay type: cell-based, human; conditions: 96 h, ADC concentrations represented by the drug component
Description: as §3, §4

HDLM-2 = test: In vitro growth inhibition (Alamar Blue); assay type: cell-based, human; conditions: 96 h, ADC concentrations represented by the drug component
Description: as §3, §4

SMILES	Mean Fold Resistance [1]	Fold Difference [2]	Fold Difference (NCI/ADR-RES cells)	Fold Resistance NCI-H69/LX4 / NCI-H69 (NCI-H69 and NCI-H69/LX-4)	Fold Resistance A2780adr / A2780 (A2780 and A2780adr)	Fold Resistance HL60/RV / HL60 (HL60 and HL60/RV)	Fold Resistance MES-SA/Dx5 / MES-SA (MES-SA and MES-SA/Dx5)	IC50 (Karpas 299 cells; Table 8, free auristatins)	IC50 [5]	IC50 [6]	IC50 [7]	further results
N.N.[Cl][Pt][Cl] [Cisplatin]	5.5 fold	1.04 fold	0.88 fold	4.7 fold	2.7 fold	13 fold	1.6 fold	–	–	–	–	difference in sensitivity of parent and resistant line [1]: thirteen
CC[C@H](C)[C@@H]([C@@H](CC(=O)N1CCC[C@H]1[C@H](OC)[C@@H](C)C(=O)N[C@@H](Cc1ccccc1)c1nccs1)OC)N(C)C(=O)[C@@H](NC(=O)[C@H](C(C)C)N(C)C)C(C)C [Dolastatin 10]	>500 fold	–	–	–	500 fold	–	8275 fold	–	–	–	–	–
COc1cccc2c1C(=O)c1c(O)c3c(c(O)c1C2=O)C[C@@](O)(C(=O)CO)C[C@@H]3O[C@H]1C[C@H](N)[C@H](O)[C@H](C)O1 [Doxorubicin]	88 fold	5.4 fold	17.9 fold	103 fold	137 fold	24 fold	83 fold	–	–	–	–	IC50 ([2]; Homo sapiens): 335 nM; IC50 (NCI/ADR-RES cells; 96 h, read-out: IC50 Drug or ADC Only): 10 µM; IC50 (NCI/ADR-RES cells; read-out: IC50 (Drug or ADC) + 10 μM Verapamil): 0.56 µM; IC50 ([3]; Homo sapiens): 62 nM; fold less sensitive H69/LX-4 compared to the parental cell (H69 and H69/LX4): approximately 100 fold
CC[C@H](C)[C@@H]([C@@H](CC(=O)N1CCC[C@H]1[C@H](OC)[C@@H](C)C(=O)N[C@H](C)[C@@H](O)c1ccccc1)OC)N(C)C(=O)[C@@H](NC(=O)[C@@H](NC)C(C)C)C(C)C [MMAE, reference compound] (H-[NMeV]V[Dil][Dolaproine]-X1)	–	–	–	–	–	–	–	0.5 nM	2 nM	0.7 nM	0.1 nM	IC50 (hematologic cell lines): 1 to 5 nM; maximum tolerated dose in mice [4]: 1 mg/kg
CC[C@H](C)[C@@H]([C@@H](CC(=O)N1CCC[C@H]1[C@H](OC)[C@@H](C)C(=O)N[C@@H](Cc1ccccc1)C(=O)O)OC)N(C)C(=O)[C@@H](NC(=O)[C@@H](NC)C(C)C)C(C)C [MMAF, N-methylvaline-valine-dolaisoleuine-dolaproline-phenylalanine] (H-[NMeV]V[Dil][Dolaproine]F-OH)	5 fold	5.7 fold	6.4 fold	4 fold	7.5 fold	6 fold	3 fold	119 nM	257 nM	200 nM	105 nM	IC50 (Karpas 299 cells; ADC concentrations represented by the drug component): 119 nM; difference in sensitivity of parent and resistant line [1]: thirteen; IC50 [2]: 1000 nM; maximum tolerated dose in mice [4]: > 16 mg/kg; IC50 [3]: 174 nM; IC50 [8]: 70.4 nM; IC50 (WSU-NHL): 60.3 nM; IC50 (L540cy): 70.4 nM; IC50 (HH): 30.7 nM; IC50 (RPMI 6666): 164 nM; fold less sensitive H69/LX-4 compared to the parental cell (H69 and H69/LX4): 3 fold; aqueous solubility compared to MMAE (Aqueous solubility): much higher; IC50 (SR-786): 38.1 nM; IC50 (L428): 68 nM; IC50 (KMH-2): 45.4 nM; IC50 (DEL): 69 nM; IC50 (SUP-M2): 79.7 nM; IC50 (SU-DHL-1): 34.7 nM; IC50 (HDLM-2): 66 nM
CC[C@H](C)[C@@H]([C@@H](CC(=O)N1CCC[C@H]1[C@H](OC)[C@@H](C)C(=O)N[C@@H](Cc1ccccc1)C(=O)OC)OC)N(C)C(=O)[C@@H](NC(=O)[C@@H](NC)C(C)C)C(C)C [MMAF-OMe] (H-[NMeV]V[Dil][Dolaproine]F-OMe)	–	–	–	–	–	–	–	< 0.001 nM	0.01 nM	< 0.001 nM	< 0.001 nM	–
CC[C@]1(O)C[C@H]2CN(CCc3c([nH]c4ccccc34)[C@@](C(=O)OC)(c3cc4c(cc3OC)N(C=O)[C@H]3[C@@](O)(C(=O)OC)[C@H](OC(C)=O)[C@]5(CC)C=CCN6CC[C@]43[C@@H]65)C2)C1 [Vincristine]	>260 fold	>10,000 fold	–	56888 fold	2000 fold	258 fold	284 fold	–	–	–	–	IC50 ([2]; Homo sapiens): 70 nM; IC50 ([3]; Homo sapiens): < 0.001 nM
